This note sets out measurements from US7538083B2, “Compositions and methods for the potentiation of immune responses against target antigens” (Intercell AG, priority 2003, dated 2009).

“Also recorded” adds a separate entry of the source.

Test [1] relates to malaria mimetic UK39 (serum IgG against it). Kind of test: UK39 ELISA of mouse sera after immunization with UK39 IRIV with or without melittin. It is filed as in vivo. The settings on record: Balb/c mice, UK39 IRIV (20 μg UK39) + 10 μg melittin; sera day 21 and 35, IgG ELISA read at 492 nm. How it is done:
Balb/c mice were immunized with 100 μl PBS containing: the malaria mimetic UK39 (20 μg UK39) in combination with an IRIV with or without 10 μg Melittin. For the UK39 ELISA, ELISA plates were coated over night at 4° C. with 10 μg/ml UK39 in PBS. After washing with PBS 0.05% Tween20 plates were blocked with 5% dry milk in PBS 2 h at 37° C. Mouse sera from day 21 and 35 were initially diluted 1:10 and titrated in serial 1:2 dilutions in PBS 0.05% Tween20 0.5% dry milk. After 2 h incubation at 37° C. plates were washed and incubated with goat […]-mouse IgG HRP Ab (BD Bioscience) (1:5000 in PBS 0.05% Tween20 0.5% dry milk) 1 h 37° C. Plates were developed with OPD-substrate (OPD (O-Phenylenediamine tablets, Fluka, Switzerland, 1 tablet in 50 ml citrate buffer+50 μl H2O2) for 30 min. The reaction was stopped with 1 M H2SO4 and plates were read at 492 nm.
UK39 IRIV: 4 mg UK39, 4 mg influenza A/Singapore, 32 mg phosphatidylcholine (PC) and 8 mg phosphatidylethanolamine (PE) were resuspended in 4 ml 100 mM OEG in PBS (OEG-PBS), sonicated for 1 min and centrifugated for 1 h at 100′000×g at 20° C. […]
UK39 ELISA: ELISA plates were coated over night at 4° C. with 10 μg/ml UK39 in PBS. […] Plates were developed with OPD-substrate (OPD (O-Phenylendiamine tablets, Fluka, Switzerland, 1 tablet in 50 ml citrate buffer+50 μl H2O2) for 30 min. The reaction was stopped with 1 M H2SO4 and plates were read at 492 nm.
Background: ELISA stands for enzyme-linked immunosorbent assay.

Test [2] deals with OVA257-64 peptide specific IFNγ+ CD8+ T cells. Also on record: species or system C57Bl/6 mice. Particulars: mouse, in vivo.
Test [3] concerns IFNγ+ CD8+ T cells specific for T4 peptide VVYDFLKCM (Kb/T404-412). Kind of test: Splenic T4-specific IFNγ+ CD8+ T cell frequency after i.m. vaccination with T4/melittin-derived fusion peptide with or without ODN. The settings on record: B6 mice, 35 nmol i.m.; for dependence of adjuvant activity on CpG motifs in the ODN: NSS+ ODN-1982 (no CpG) versus ISS+ ODN-1826 (CpG). It is filed as in vivo, C57BL/6 (B6) mice. From the text: The adjuvant activity of the melittin-derived peptide thus acts synergistically even with oligodeoxynucleotides that lack any immunostimulatory sequences. C57BL/6 (B6) mice were either not immunized (group 1) or vaccinated i.m. with 35 nmol of peptides alone (group 2) or mixed with oligodeoxynucleotide (group 3), not containing (A; NSS^+ ODN-1982; SEQ ID NO: 7), or containing (B; ISS^+ ODN-1826; SEQ ID NO: 6) CpG motifs. Spleen cells obtained from immune mice 12 days post vaccination were restimulated ex vivo with the T4 peptide VVYDFLKCM (K^b/T404-412, SEQ ID NO: 4). Mean number of specific IFNγ^+ CD8^+ T cells/10^5 CD8^+ T cells±SD (of 6 mice per group) averaged from two independent experiments are shown.
Fusion of a sample antigen (here, T4 peptide) to the melittin-derived peptide and binding ODN to them creates potent immunogens for CD8^+ T cells. A sample target antigen, the SV40-derived T4 peptide T404-417 VVYDFLKCMVYNIP (SEQ ID NO: 5) was fused to a duplicated amino acid sequence derived from melittin (KRKRQKRKRQ, SEQ ID NO: 2). B6 mice were vaccinated i.m. with 35 nmol of these peptides alone (group 2), or mixed with ODN (group 3), not containing (A; NSS+ ODN-1982), or containing (B; ISS+ ODN-1826) CpG motifs (FIG. 1). Spleen cells obtained from immune mice 12 days post-vaccination were restimulated ex vivo with the T4 peptide VVYDFLKCM (SEQ ID NO: 4) (Kb/T404-412). Mean numbers of specific IFNγ^+ CD8^+ T cells/10^5 CD8^+ T cells±SD (of 6 mice per group) averaged from two independent experiments are shown.
C57BL/6JBom (B6) mice (H-2b) were bred and kept under standard pathogen-free conditions in the animal colony of Ulm University (Ulm, Germany). Male/female mice were used at 12-16 wks of age. The preparation of cationic peptide/ODN vaccines CpG containing ODN-1826 ([…]; ISS-1826, SEQ ID NO: 6) and its control ODN-1982 ([…]; NSS-1982, SEQ ID NO: 7) were obtained from MWG (Ebersberg, Germany). ODN were synthesized with phosphorothioate backbones. […] The number of CD8^+ IFNγ^+ T cells per 10^5 splenic CD8^+ T cells was determined by FCM analyses.

`CC[C@H](C)[C@H](NC(=O)CN)C(=O)NCC(=O)N[C@@H](C)C(=O)N[C@H](C(=O)N[C@@H](CC(C)C)C(=O)N[C@@H](CCCCN)C(=O)N[C@H](C(=O)N[C@@H](CC(C)C)C(=O)N[C@H](C(=O)N[C@H](C(=O)NCC(=O)N[C@@H](CC(C)C)C(=O)N1CCC[C@H]1C(=O)N[C@@H](C)C(=O)N[C@@H](CC(C)C)C(=O)N[C@H](C(=O)N[C@@H](CO)C(=O)N[C@@H](Cc1c[nH]c2ccccc12)C(=O)N[C@H](C(=O)N[C@@H](CCCCN)C(=O)N[C@@H](CCCNC(=N)N)C(=O)N[C@@H](CCCCN)C(=O)N[C@@H](CCCNC(=N)N)C(=O)N[C@@H](CCC(N)=O)C(=O)N[C@@H](CCC(N)=O)C(N)=O)[C@@H](C)CC)[C@@H](C)CC)[C@@H](C)O)[C@@H](C)O)C(C)C)C(C)C` [melittin]: the “humoral immune response (B cell immunity) against antigen UK39 coupled to IRIV” value in test [1] is “adjuvant effect; also recorded: further enhanced”. Take CKRKRQKRKRQSIINFEKL [Cys-Mel-OVA257-64]: the “adjuvant effect in combination with IRIVs (peptide specific IFNγ+ CD8+ T cells)” value in test [2] is recorded as “further potentiated by its combination with IRIVs; also recorded: further synergizes with IRIVs”. As for “KRKRQKRKRQ (Synthetic peptide derived from Apis mellifera)”, in test [3] (combined with target antigen T4 and oligodeoxynucleotide, spleen cells 12 days post vaccination restimulated ex vivo with T4 peptide), the “adjuvant activity (specific IFNγ+ CD8+ T cells/10^5 CD8+ T cells)” value is “significant adjuvant activity”. Moreover, the “dependence of adjuvant activity on CpG motifs in the ODN” value is “not dependent on the presence of CpG sequences in the ODN” in test [3] and “does not depend on the presence of CpG motifs” in test [3] (listed as KRKRQKRKRQ).
